This passage reports IC50 results from patent US20240116985A1, “STAPLED PEPTIDES AND METHODS THEREOF” (priority 2020, published 2024).

The target of the experiment is T1, full-length beta-Catenin (Uniprot ID P35222) (Homo sapiens, UniProt P35222).
T1 construct: 10 nM full-length beta-Catenin (Uniprot ID P35222)
T1 sequence (P35222 1-781): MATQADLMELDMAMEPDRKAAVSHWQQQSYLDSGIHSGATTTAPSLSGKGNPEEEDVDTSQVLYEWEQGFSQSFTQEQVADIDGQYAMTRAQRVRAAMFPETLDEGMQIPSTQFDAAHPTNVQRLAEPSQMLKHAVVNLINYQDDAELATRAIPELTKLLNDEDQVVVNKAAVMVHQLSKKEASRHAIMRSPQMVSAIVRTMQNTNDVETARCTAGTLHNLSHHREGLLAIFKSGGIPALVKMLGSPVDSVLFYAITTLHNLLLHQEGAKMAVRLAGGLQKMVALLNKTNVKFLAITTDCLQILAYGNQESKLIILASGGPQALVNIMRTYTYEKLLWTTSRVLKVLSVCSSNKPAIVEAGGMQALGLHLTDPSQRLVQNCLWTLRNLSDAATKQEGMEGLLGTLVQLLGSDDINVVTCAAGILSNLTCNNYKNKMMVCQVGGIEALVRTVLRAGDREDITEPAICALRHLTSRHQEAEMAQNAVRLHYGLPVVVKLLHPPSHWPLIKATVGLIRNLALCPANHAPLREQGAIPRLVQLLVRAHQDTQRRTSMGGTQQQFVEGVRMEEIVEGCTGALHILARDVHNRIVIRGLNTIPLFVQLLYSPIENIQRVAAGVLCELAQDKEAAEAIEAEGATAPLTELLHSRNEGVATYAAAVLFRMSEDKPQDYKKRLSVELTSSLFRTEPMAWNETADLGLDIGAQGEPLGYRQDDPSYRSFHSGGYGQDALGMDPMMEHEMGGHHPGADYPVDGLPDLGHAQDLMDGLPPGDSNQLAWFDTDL
In words: Fluorescence polarization IC50 (beta-catenin / 5FAM-TCF4 10-53 competition). The experiment is classed as binding. The settings on record: fluorescence polarization. (In general: Fluorescence polarisation rises when a labelled molecule tumbles more slowly, as on binding a larger partner.)

Setting [1] is: beta-catenin, read-out: FP EC50.

Where two headings read alike, the source gives them in different places.

Take `CC(=O)N1CCC[C@]12CC=CCCCC1(CCCC=CCCCCCC[C@@](C)(C(=O)N[C@@H](Cc3ccsc3)C(=O)N[C@@H](Cc3csc4ccccc34)C(=O)N[C@@H](CCC(N)=O)C(N)=O)NC(=O)[C@H](CC(N)=O)NC(=O)[C@H](Cc3ccccc3)NC(=O)[C@H](C)NC(=O)[C@H](C)NC(=O)[C@H](CN(CC(=O)O)C(C)C)NC(=O)[C@H](CC(=O)O)NC1=O)NC(=O)[C@H](CC(C)(C)C)NC(=O)[C@H](CC(=O)O)NC2=O` (stereo partly drawn) [I-1452, Ac-PL3-Asp-Npg-B5-Asp-[iPr]GA-Ala-Ala-Phe-Asn-S8-3Thi-BztA-Gln-NH2]: the IC50 worked out at 66 nM under setting [1] and 66 nM (read-out: beta-Catenin FP IC50).
Regarding `CC(=O)N1CCC[C@]12CC=CCCCC1(CCCC=CCCCCCC[C@@](C)(C(=O)N[C@@H](Cc3ccsc3)C(=O)N[C@@H](Cc3csc4ccccc34)C(=O)N[C@@H](CCC(N)=O)C(N)=O)NC(=O)[C@H](CC(N)=O)NC(=O)[C@H](Cc3ccccc3)NC(=O)[C@H](C)NC(=O)[C@H](C)NC(=O)[C@H](CN(CC(=O)O)C(C)C)NC(=O)[C@H](CC(=O)O)NC1=O)NC(=O)[C@H](CC(C)(C)C)NC(=O)[C@H](CC(=O)O)NC2=O` (stereo partly drawn) [I-1453, Ac-PL3-Asp-Npg-B5-Asp-[iPr]GA-Ala-Ala-Phe-Asn-S8-3Thi-BztA-Gln-NH2], the IC50 under setting [1] came out at 52 nM and the IC50 (read-out: beta-Catenin FP IC50) amounted to 52 nM.
Turning to `CC(=O)N1CCC[C@]12CC=CCCCC1(CCCC=CCCCOC(=O)N3CC[C@@](C(=O)N[C@@H](Cc4ccsc4)C(=O)N[C@@H](Cc4csc5ccccc45)C(=O)N[C@@H](Cc4c[nH]cn4)C(N)=O)(C3)NC(=O)[C@H](CCC(N)=O)NC(=O)[C@H](Cc3ccccc3)NC(=O)[C@H](C)NC(=O)[C@H](C)NC(=O)[C@H](CC(=O)O)NC(=O)[C@H](CC(=O)O)NC1=O)NC(=O)[C@H](CC(C)(C)C)NC(=O)[C@H](CC(=O)O)NC2=O` (stereo partly drawn) [I-1459, Ac-PL3-Asp-Npg-B5-Asp-Asp-Ala-Ala-Phe-Gln-PyrS2-3Thi-BztA-His-NH2], the IC50 (read-out: beta-Catenin FP IC50) was 5 nM.
Consider `CC(=O)N1CCC[C@]12CC=CCCCC1(CCCC=CCCCOC(=O)N3CC[C@@](C(=O)N[C@@H](Cc4ccsc4)C(=O)N[C@@H](Cc4csc5ccccc45)C(=O)N[C@@H](Cc4c[nH]cn4)C(N)=O)(C3)NC(=O)[C@H](CCC(N)=O)NC(=O)[C@H](Cc3ccccc3)NC(=O)[C@H](C)NC(=O)[C@H](C)NC(=O)[C@H](CC(=O)O)NC(=O)[C@H](CC(=O)O)NC1=O)NC(=O)[C@H](CC(C)(C)C)NC(=O)[C@H](CC(=O)O)NC2=O` (stereo partly drawn) [I-1460, Ac-PL3-Asp-Npg-B5-Asp-Asp-Ala-Ala-Phe-Gln-PyrS2-3Thi-BztA-His-NH2], for which the IC50 (read-out: beta-Catenin FP IC50) came out at 7 nM.
Regarding `CC(=O)N1CCC[C@]12CC=CCCCC1(CCCC=CCCCOC(=O)N3CC[C@@](C(=O)N[C@@H](Cc4ccccc4Cl)C(=O)N[C@@H](Cc4csc5ccccc45)C(=O)N[C@@H](CCC(N)=O)C(N)=O)(C3)NC(=O)[C@H]([C@@H](C)O)NC(=O)[C@H](Cc3ccccc3)NC(=O)[C@H](C)NC(=O)[C@H](C)NC(=O)[C@H](CN(CC(=O)O)CC(F)(F)F)NC(=O)[C@H](CC(=O)O)NC1=O)NC(=O)[C@H](CC(C)(C)C)NC(=O)[C@H](CC(=O)O)NC2=O` (stereo partly drawn) [I-1463, Ac-PL3-Asp-Npg-B5-Asp-TfeGA-Ala-Ala-Phe-Thr-PyrS2-2C1F-BztA-Gln-NH2], the IC50 (read-out: beta-Catenin FP IC50) worked out at 18 nM.
As to `CC(=O)N1CCC[C@]12CCCCCCC1(CCCCCCCCOC(=O)N3CC[C@@](C(=O)N[C@@H](Cc4ccccc4Cl)C(=O)N[C@@H](Cc4csc5ccccc45)C(=O)N[C@@H](CCC(N)=O)C(N)=O)(C3)NC(=O)[C@H](CC(N)=O)NC(=O)[C@H](Cc3ccccc3)NC(=O)[C@H](C)NC(=O)[C@H](C)NC(=O)[C@H](CC(=O)O)NC(=O)[C@H](CC(=O)O)NC1=O)NC(=O)[C@H](CC(C)(C)C)NC(=O)[C@H](CC(=O)O)NC2=O` (stereo partly drawn) [I-1464, Ac-PL3-Asp-Npg-B5-Asp-Asp-Ala-Ala-Phe-Asn-PyrS2-2C1F-BztA-Gln-NH2], the IC50 (read-out: beta-Catenin FP IC50) turned out to be 168 nM.
Take `CC(=O)N1CCC[C@]12CC=CCCCC1(CCCC=CCCCOC(=O)N3CC[C@@](C(=O)N[C@@H](Cc4ccsc4)C(=O)N[C@@H](Cc4csc5ccccc45)C(=O)N[C@@H](CCC(N)=O)C(N)=O)(C3)NC(=O)[C@H](CC(C)C)NC(=O)[C@H](Cc3ccccc3)NC(=O)[C@H](C)NC(=O)[C@H](C)NC(=O)[C@H](CC(=O)O)NC(=O)[C@H](CC(=O)O)NC1=O)NC(=O)[C@H](CCCCNC(=O)CC[C@@H](C)[C@H]1CC[C@H]3[C@@H]4CC[C@@H]5C[C@H](O)CC[C@]5(C)[C@H]4CC[C@]13C)NC(=O)[C@H](CC(=O)O)NC2=O` (stereo partly drawn) [I-1469, Ac-PL3-Asp-[lithocholate]-Lys-B5-Asp-Asp-Ala-Ala-Phe-Leu-PyrS2-3Thi-BztA-Gln-NH2]: under “read-out: beta-Catenin FP IC50”, the IC50 came to 95 nM.
With `CC(=O)N1CCC[C@]12CC=CCCCC1(CCCC=CCCCOC(=O)N3CC[C@@](C(=O)N[C@@H](Cc4ccsc4)C(=O)N[C@@H](Cc4csc5ccccc45)C(=O)N[C@@H](CCC(N)=O)C(N)=O)(C3)NC(=O)[C@H](CC(C)C)NC(=O)[C@H](Cc3ccccc3)NC(=O)[C@H](CCCCNC(=O)CC[C@@H](C)[C@H]3CC[C@H]4[C@@H]5CC[C@@H]6C[C@H](O)CC[C@]6(C)[C@H]5CC[C@]34C)NC(=O)[C@H](C)NC(=O)[C@H](CC(=O)O)NC(=O)[C@H](CC(=O)O)NC1=O)NC(=O)[C@H](CC(C)(C)C)NC(=O)[C@H](CC(=O)O)NC2=O` (stereo partly drawn) [I-1473, Ac-PL3-Asp-Npg-B5-Asp-Asp-Ala-[lithocholate]-Lys-Phe-Leu-PyrS2-3Thi-BztA-Gln-NH2], the IC50 (read-out: beta-Catenin FP IC50) was found to be 224 nM.
As for `CC(=O)N1CCC[C@]12CC=CCCCC1(CCCC=CCCCOC(=O)N3CC[C@@](C(=O)N[C@@H](Cc4ccsc4)C(=O)N[C@@H](Cc4csc5ccccc45)C(=O)N[C@@H](CCC(N)=O)C(N)=O)(C3)NC(=O)[C@H](CC(C)C)NC(=O)[C@H](Cc3ccccc3)NC(=O)[C@H](CCCCNC(=O)C34CC5(C)CC(C)(CC(C)(C5)C3)C4)NC(=O)[C@H](C)NC(=O)[C@H](CC(=O)O)NC(=O)[C@H](CC(=O)O)NC1=O)NC(=O)[C@H](CC(C)(C)C)NC(=O)[C@H](CC(=O)O)NC2=O` (stereo partly drawn) [I-1475, Ac-PL3-Asp-Npg-B5-Asp-Asp-Ala-[Me3AdamantC]-Lys-Phe-Leu-PyrS2-3Thi-BztA-Gln-NH2], the IC50 (read-out: beta-Catenin FP IC50) stood at 113 nM.
Regarding `CC(=O)N1CCC[C@]12CC=CCCCC1(CCCC=CCCCOC(=O)N3CC[C@@](C(=O)N[C@@H](Cc4ccsc4)C(=O)N[C@@H](Cc4csc5ccccc45)C(=O)N[C@@H](CCC(N)=O)C(=O)N[C@@H](CCCCNC(=O)CC[C@@H](C)[C@H]4CC[C@H]5[C@@H]6CC[C@@H]7C[C@H](O)CC[C@]7(C)[C@H]6CC[C@]45C)C(N)=O)(C3)NC(=O)[C@H](CC(C)C)NC(=O)[C@H](Cc3ccccc3)NC(=O)[C@H](C)NC(=O)[C@H](C)NC(=O)[C@H](CC(=O)O)NC(=O)[C@H](CC(=O)O)NC1=O)NC(=O)[C@H](CC(C)(C)C)NC(=O)[C@H](CC(=O)O)NC2=O` (stereo partly drawn) [I-1477, Ac-PL3-Asp-Npg-B5-Asp-Asp-Ala-Ala-Phe-Leu-PyrS2-3Thi-BztA-Gln-[lithocholate]-Lys-NH2], the IC50 (read-out: beta-Catenin FP IC50) is 148 nM.
For `CC(=O)N1CCC[C@]12CC=CCCCC1(CCCC=CCCCOC(=O)N3CC[C@@](C(=O)N[C@@H](Cc4ccsc4)C(=O)N[C@@H](Cc4csc5ccccc45)C(=O)N[C@@H](CCC(N)=O)C(=O)N[C@@H](CCCCNC(=O)C45CC6(C)CC(C)(CC(C)(C6)C4)C5)C(N)=O)(C3)NC(=O)[C@H](CC(C)C)NC(=O)[C@H](Cc3ccccc3)NC(=O)[C@H](C)NC(=O)[C@H](C)NC(=O)[C@H](CC(=O)O)NC(=O)[C@H](CC(=O)O)NC1=O)NC(=O)[C@H](CC(C)(C)C)NC(=O)[C@H](CC(=O)O)NC2=O` (stereo partly drawn) [I-1479, Ac-PL3-Asp-Npg-B5-Asp-Asp-Ala-Ala-Phe-Leu-PyrS2-3Thi-BztA-Gln-[Me3AdamantC]-Lys-NH2], where the note is “read-out: beta-Catenin FP IC50”, the IC50 was 173 nM.
